Measured values from patent US8927500B2, “Peptidomimetic macrocycles” (Aileron Therapeutics, Inc., priority 2012, dated 2015).
Where a SMILES comes first, the peptide text is derived from it. Bridges are numbered along the chain shown (N, C = ends). [ ]: non-standard residue; d: D form. R8 = C=CCCCCCC[C@@](C)(N)C(=O)O; Cha = N[C@@H](CC1CCCCC1)C(=O)O; Chg = N[C@H](C(=O)O)C1CCCCC1; hLeu = CC(C)CC[C@H](N)C(=O)O; S5 = C=CCCC[C@](C)(N)C(=O)O; Nle = CCCC[C@H](N)C(=O)O; Ac3c = NC1(C(=O)O)CC1

How the values were obtained:
[1] = target: T1, MDMX (Homo sapiens, UniProt O15151); experiment: Competitive fluorescence polarization assay for MDMX; assay type: binding; settings: competitive FP assay; for Ki: read-out: Ki (MDMX); for IC50: read-out: IC50 (MDMX)
T1 sequence (O15151 1-125): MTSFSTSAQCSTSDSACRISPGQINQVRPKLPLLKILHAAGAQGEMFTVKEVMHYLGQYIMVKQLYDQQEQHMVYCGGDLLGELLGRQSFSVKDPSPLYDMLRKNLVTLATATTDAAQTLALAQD

[2] = target: MDM2 (Homo sapiens, UniProt Q00987); experiment: Competitive fluorescence polarization assay for MDM2; assay type: binding; settings: competitive FP assay, MDM2; for Ki: read-out: Ki (MDM2); for IC50: read-out: IC50 (MDM2)
MDM2, sequence (Q00987 1-125): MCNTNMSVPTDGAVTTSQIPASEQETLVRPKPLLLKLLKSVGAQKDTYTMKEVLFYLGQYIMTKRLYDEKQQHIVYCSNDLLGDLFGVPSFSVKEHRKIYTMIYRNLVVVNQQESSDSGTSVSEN

Row | Ki [1] [nM] | Ki [2] [nM] | IC50 [1] [nM] | IC50 [2] [nM] | Structure (SMILES)
1 | 10 to 100 | 10 to 100 | – | – | CC(=O)N[C@@H](CC(C)C)C(=O)N[C@H](C(=O)N[C@@H](Cc1ccccc1)C(=O)N[C@]1(C)CCCCCCC=CCCC[C@@](C)(C(=O)N[C@@H](CO)C(N)=O)NC(=O)[C@H](CC(C)C)NC(=O)[C@H](CCC(N)=O)NC(=O)[C@H](C)NC(=O)[C@H](Cc2c[nH]c3ccccc23)NC(=O)[C@H](C)NC(=O)[C@H](Cc2c[nH]cn2)NC1=O)[C@@H](C)O (single isomer, unassigned) [compound 710]
2 | 100 to 1000 | 10 to 100 | – | – | CC(=O)N[C@@H](CC(C)C)C(=O)N[C@H](C(=O)N[C@@H](Cc1ccccc1)C(=O)N[C@]1(C)CCCCCCC=CCCC[C@@](C)(C(=O)N[C@@H](CO)C(=O)N[C@@H](C)C(N)=O)NC(=O)[C@H](CC2CCC2)NC(=O)[C@H](CCC(N)=O)NC(=O)[C@H](C)NC(=O)[C@H](Cc2c[nH]c3ccccc23)NC(=O)[C@H](Cc2ccc(O)cc2)NC(=O)[C@H](CCC(=O)O)NC1=O)[C@@H](C)O (single isomer, unassigned) [compound 711]
3 | < 10 | < 10 | – | – | CC(=O)N[C@@H](CC(C)C)C(=O)N[C@H](C(=O)N[C@@H](Cc1ccccc1)C(=O)N[C@]1(C)CCCCCCC=CCCC[C@@](C)(C(=O)N[C@@H](CO)C(=O)N[C@@H](C)C(=O)N[C@@H](C)C(N)=O)NC(=O)[C@H](CC2CCC2)NC(=O)[C@H](CCC(N)=O)NC(=O)[C@H](C)NC(=O)[C@H](Cc2c[nH]c3ccccc23)NC(=O)[C@H](Cc2ccc(O)cc2)NC(=O)[C@H](Cc2c[nH]cn2)NC1=O)[C@@H](C)O (single isomer, unassigned) [compound 712]
4 | < 10 | < 10 | – | – | CC(=O)N[C@@H](CC(C)C)C(=O)N[C@H](C(=O)N[C@@H](Cc1ccccc1)C(=O)N[C@]1(C)CCCCCCC=CCCC[C@@](C)(C(=O)N[C@@H](CO)C(=O)N[C@@H](C)C(=O)N[C@@H](C)C(N)=O)NC(=O)[C@H](CC2CCC2)NC(=O)[C@H](CCC(N)=O)NC(=O)[C@H](C)NC(=O)[C@H](Cc2c[nH]c3ccccc23)NC(=O)[C@H](Cc2ccc(O)cc2)NC(=O)[C@H](CO)NC1=O)[C@@H](C)O (single isomer, unassigned) [compound 713]
5 | < 10 | < 10 | – | – | CC(=O)N[C@@H](CC(C)C)C(=O)N[C@H](C(=O)N[C@@H](Cc1ccccc1)C(=O)N[C@]1(C)CCCCCCC=CCCC[C@@](C)(C(=O)N[C@@H](C)C(=O)N[C@@H](C)C(=O)N[C@@H](C)C(N)=O)NC(=O)[C@H](CC2CCC2)NC(=O)[C@H](CCC(N)=O)NC(=O)[C@H](C)NC(=O)[C@H](Cc2c[nH]c3ccccc23)NC(=O)[C@H](Cc2ccc(O)cc2)NC(=O)[C@H](CCC(=O)O)NC1=O)[C@@H](C)O (single isomer, unassigned) [compound 716]
6 | 10 to 100 | < 10 | 100 to 1000 | 10 to 100 | CSCC[C@H](NC(=O)[C@H](C)NC(=O)[C@H](CO)NC(=O)[C@]1(C)CCCC=CCCCCCC[C@@](C)(NC(=O)[C@H](Cc2ccccc2)NC(=O)[C@@H](NC(=O)[C@H](CC(C)C)NC(C)=O)[C@@H](C)O)C(=O)N[C@@H](C)C(=O)N[C@@H](Cc2ccc(O)cc2)C(=O)N[C@@H](Cc2c[nH]c3ccccc23)C(=O)N[C@@H](C)C(=O)N[C@@H](CCC(N)=O)C(=O)N[C@@H](CC(C)C)C(=O)N1)C(N)=O [compound 5] (Ac-LTF[R8]AYWAQL[S5]SAM-NH2; staple 4-11)
7 | < 10 | < 10 | 10 to 100 | 10 to 100 | CCCC[C@H](NC(=O)[C@H](C)NC(=O)[C@H](C)NC(=O)[C@]1(C)CCCC=CCCCCCC[C@@](C)(NC(=O)[C@H](Cc2ccccc2)NC(C)=O)C(=O)N[C@@H](C)C(=O)N[C@@H](Cc2ccc(O)cc2)C(=O)N[C@@H](Cc2c[nH]c3ccccc23)C(=O)N[C@@H](CCC(=O)O)C(=O)NC2(CC2)C(=O)N[C@@H](CC(C)C)C(=O)N1)C(N)=O [compound 14] (Ac-F[R8]AYWE[Ac3c]L[S5]AA[Nle]-NH2; staple 2-9)
8 | 10 to 100 | < 10 | 10 to 100 | 10 to 100 | CSCC[C@H](NC(=O)[C@H](C)NC(=O)[C@H](C)NC(=O)[C@]1(C)CCCC=CCCCCCC[C@@](C)(NC(=O)[C@H](Cc2ccccc2)NC(C)=O)C(=O)N[C@@H](C)C(=O)N[C@@H](Cc2ccc(O)cc2)C(=O)N[C@@H](Cc2c[nH]c3ccccc23)C(=O)N[C@@H](CCC(=O)O)C(=O)NC2(CC2)C(=O)N[C@@H](CC(C)C)C(=O)N1)C(N)=O [compound 16] (Ac-F[R8]AYWE[Ac3c]L[S5]AAM-NH2; staple 2-9)
9 | 10 to 100 | < 10 | 10 to 100 | 10 to 100 | CC(=O)N[C@@H](Cc1ccccc1)C(=O)N[C@]1(C)CCCCCCC=CCCC[C@@](C)(C(=O)N[C@@H](C)C(=O)N[C@@H](C)C(=O)N[C@@H](CCC(C)C)C(N)=O)NC(=O)[C@H](CC(C)C)NC(=O)C2(CC2)NC(=O)[C@H](CCC(=O)O)NC(=O)[C@H](Cc2c[nH]c3ccccc23)NC(=O)[C@H](Cc2ccc(O)cc2)NC(=O)[C@H](C)NC1=O [compound 17] (Ac-F[R8]AYWE[Ac3c]L[S5]AA[hLeu]-NH2; staple 2-9)
10 | 10 to 100 | 10 to 100 | 100 to 1000 | 100 to 1000 | CC(=O)N[C@@H](Cc1ccccc1)C(=O)N[C@]1(C)CCCCCCC=CCCC[C@@](C)(C(=O)N[C@@H](C)C(=O)N[C@@H](C)C(=O)N[C@H](C(N)=O)C2CCCCC2)NC(=O)[C@H](CC(C)C)NC(=O)C2(CC2)NC(=O)[C@H](CCC(=O)O)NC(=O)[C@H](Cc2c[nH]c3ccccc23)NC(=O)[C@H](Cc2ccc(O)cc2)NC(=O)[C@H](C)NC1=O [compound 20] (Ac-F[R8]AYWE[Ac3c]L[S5]AA[Chg]-NH2; staple 2-9)
11 | 10 to 100 | 10 to 100 | 10 to 100 | 100 to 1000 | CC(=O)N[C@@H](Cc1ccccc1)C(=O)N[C@]1(C)CCCCCCC=CCCC[C@@](C)(C(=O)N[C@@H](C)C(=O)N[C@@H](C)C(=O)N[C@@H](CC2CCCCC2)C(N)=O)NC(=O)[C@H](CC(C)C)NC(=O)C2(CC2)NC(=O)[C@H](CCC(=O)O)NC(=O)[C@H](Cc2c[nH]c3ccccc23)NC(=O)[C@H](Cc2ccc(O)cc2)NC(=O)[C@H](C)NC1=O [compound 21] (Ac-F[R8]AYWE[Ac3c]L[S5]AA[Cha]-NH2; staple 2-9)
12 | 10 to 100 | < 10 | 10 to 100 | 10 to 100 | CC(=O)N[C@@H](CC(=O)O)C(=O)N[C@@H](CC(C)C)C(=O)N[C@H](C(=O)N[C@@H](Cc1ccccc1)C(=O)N[C@]1(C)CCCCCCC=CCCC[C@@](C)(C(=O)N[C@@H](CCCNC(=N)N)C(=O)N[C@@H](CCCNC(=N)N)C(=O)N[C@@H](CC(C)C)C(=O)N[C@H](C(N)=O)C(C)C)NC(=O)[C@H](CC(C)C)NC(=O)[C@H](CCC(N)=O)NC(=O)[C@H](Cc2c[nH]cn2)NC(=O)[C@H](Cc2c[nH]c3ccccc23)NC(=O)[C@H](Cc2c[nH]cn2)NC(=O)[C@H](Cc2c[nH]cn2)NC1=O)[C@@H](C)O [compound 28] (Ac-DLTF[R8]HHWHQL[S5]RRLV-NH2; staple 5-12)
